Results on 9 compounds are retold here after ChEMBL document CHEMBL5726175, “sGC stimulators” (2019).

The nature of the assay: sGC-HEK-cGMP Assay: Human embryonic kidney cells (HEK293), endogenously expressing soluble guanylate cyclase (sGC), were used to evaluate the activity of test compounds. Compounds stimulating the sGC enzyme should cause an increase in the intracellular concentration of cGMP. HEK 293 cells were seeded in Dulbecco's Modification of Eagle's Medium supplemented with fetal bovine serum (10% final) and penicillin (100 U/mL)/streptomycin (100 μg/mL) in a 50 μL volume at a density of 1.5×10^4 cells/well in a poly-D-lysine coated 384 well flat bottom plate. Cells were incubated overnight at 37° C. in a humidified chamber with 5% CO2. Medium was aspirated and cells were washed with 1× Hank's Buffered Saline Salt Solution (50 μL). Cells were then incubated for 15 minutes at 37° C. with 50 μL of a 0.5 mM 3-isobutyl-1-methylxanthine (IBMX) solution. Test article and Diethylenetriamine NONOate (DETA-NONOate) solutions (x μM concentration for test article solution and 10 μM concentration for DETA-NONOate solution; wherein x is one of the following concentrations: 0.029 nM to 30000 nM). were then added to the assay mixture and the resulting mixture incubated at 37° C. for 20 minutes. After the 20 minute incubation, the assay mixture was aspirated and 10% acetic acid containing 150 ng/mL+3-cGMP (internal standard for LCMS) (50 μL) was added to the cells. The plate was incubated at 4° C. for 30 minutes in the acetic acid solution to stop the reaction and lyse the cells. The plates were then centrifuged at 1,000 g for 3 minutes at 4° C. and the supernatant transferred to a clean reaction plate for LCMS analysis.cGMP concentrations were determined from each sample using the LCMS conditions below (Table 5) and calculated standard curve. The standard curve was prepared in 10% acetic acid with 150 ng/mL+3cGMP (isotopically labelled cGMP with a weight 3 units higher than wild type) with the following final concentrations of cGMP in ng/mL: 1, 5, 10, 50, 100, 250, 500, 1000, 2000. The class given is cell-based.

Molecules are shown by their SMILES.

As usually defined, the EC50 is the concentration giving half of the maximal effect. In the case of `O=COC1CNCCN1c1nc(-c2cc(-c3ccon3)n(Cc3ccccc3F)n2)ncc1F` (centres undefined), the EC50 was more than 1 µM.
The result for `O=COC1c2[nH]cnc2CCN1c1nc(-c2cc(-c3ccon3)n(Cc3ccccc3F)n2)ncc1F` (centres undefined) reads more than 1 µM; that for `COc1ccc2c(c1)CCN(c1nc(-c3cc(-c4ccon4)n(Cc4ccccc4F)n3)ncc1F)C2OC=O` (centres undefined), less than 0.1 µM.
As to `CC(=O)c1cc(-c2ncc(F)c(N3CCC[C@H](C)[C@@H]3OC=O)n2)nn1Cc1ccccc1F`, the EC50 entry was “in the range around 0.55 µM”.
The result for `COC(=O)N1CCN(c2nc(-c3cc(-c4ccon4)n(Cc4ccccc4F)n3)ncc2F)C(OC=O)C1` (centres undefined) reads more than 1 µM; that for `O=COC1c2ccc(O)cc2CCN1c1nc(-c2cc(-c3ccon3)n(Cc3ccccc3F)n2)ncc1F` (centres undefined), more than 1 µM.
For `C[C@H]1CCCN(c2nc(-c3cc(-c4ccon4)n(Cc4cccc(F)c4F)n3)ncc2F)[C@H]1OC=O`, the concentration giving a half-maximal response (EC50) was less than 0.1 µM.
For `Fc1ccccc1Cn1nc(-c2ncc(F)c(N3CCCC4CC43)n2)cc1-c1ccon1` (centres undefined), the half-maximal effective concentration (EC50) entry is “in the range around 0.55 µM”.
As to `O=CO[C@H](Cc1ccc(O)cc1)Nc1nc(-c2cc(-c3ccon3)n(Cc3ccccc3F)n2)ncc1F`, the EC50 was more than 1 µM.
